The numbers were not newly measured in patent US7183392B2, “Site-specific, covalent bioconjugation of proteins” (Zyomyx, Inc., priority 2000, dated 2007), which cites them from elsewhere.

pKd: −log10 of the molar value.

The target of data set [1] is Helix A / Helix B parallel heterodimer. Conditions: parallel heterodimer of Helix A with Helix B; read-out: dissociation constant.
For data set [2] the following is noted: aqueous and polar environments.
Data set [3] concerns the target RNA aptamer. Conditions: 11 amino acid sequence, known RNA aptamer.

For “EYQALEKEVAQLEAENNALEKEVAQLEHEG [Helix A]”, the pKd in data set [1] was about 8.22. Also, the solubility entry in data set [2] is “very soluble”.

In the case of “EYQALKKKVAQLKAKNNALKKKVAQLKHKG [Helix B]”, in data set [1], the pKd was about 8.22. For the same substance, the solubility entry in data set [2] was “very soluble”.

On to “substance P: 11 amino acid long peptide sequence that binds a known RNA aptamer”, for which the pKd in data set [3] was about 6.72.
